# Assay results reported in US10391201B2, “Gene therapy” (Ospedale San Raffaele S.r.l., priority 2014, dated 2019).
# Experiments:
# [1] = system: cord blood (CB)-derived CD34+ cells; assay type: cell-based, human
# Description: (§1) Human CB and BM-derived haematopoietic stem/progenitor cells (HSPC) were cultured in serum-free StemSpan medium (StemCell Technologies) supplemented with 100 ng/mL recombinant human stem cell factor (rhSCF), 20 ng/mL recombinant human thrombopoietin (rhTPO), 100 ng/mL recombinant human Flt3 ligand (rhFlt3) and 20 ng/mL recombinant human IL6 (rhIL6) (all from Peprotech) 16 to 24 hours prior to transduction. HSPC were then transduced at a concentration of 1×10^6 cells per mL with vesicular stomatitis virus glycoprotein (VSV-G)-pseudotyped SINLV for 20 hours at the indicated multiplicity of infection (MOI) in the same medium. After transduction, cells were washed and maintained serum-free StemSpan supplemented with cytokines as above until the reading of GFP-positive (GFP+) cells by FACS. After FACS they were maintained in Roswell Park Memorial Institute medium (RPMI, Lonza) supplemented with 10% FBS, 25 ng/mL rhSCF, 5 ng/mL rhIL6, 25 ng/mL rhFlt3 and 5 ng/mL rhTPO for another seven days before analysis of vector copy numbers. MDM were transduced 7 days after differentiation. T lymphocytes were transduced at a concentration of 10^6 cells per mL, after 3 days of stimulation. All the cells were exposed to the vector for 16-20 hours.
# (§2) They were added to the transduction medium at the indicated concentration and washed out with the vector 16-20 hours later.
# (§3) GFP expression in transduced cells was measured 5-7 days post-transduction. Adherent MDM were detached by scraping in 5 mM PBS-EDTA, washed and resuspended in PBS containing 2% FBS. Cells grown in suspension were washed and resuspended in PBS containing 2% FBS. To exclude dead cells from the analysis, 10 ng/mL 7-aminoactinomycin D (7-AAD) was added.
# (§4) DNA from cell cultures was extracted using a Maxwell 16 instrument (Promega) or Blood & Cell Culture DNA Micro Kit (Qiagen). To amplify the vector sequence, primers and probes complementary to the vector Rev responsive element sequence were used. Vector copy numbers and replication intermediates were normalised to genomic DNA content, which was assessed using the human TERT gene. Quantitative polymerase chain reaction (qPCR) primers and probe sequences and conditions were previously described (Santoni de Sio, F. R. et al (2006) Blood 107: 4257-65).
# [2] = system: bone marrow (BM)-derived CD34+ cells; assay type: cell-based, human
# Description: as §1, §2, §3, §4
# [3] = system: CB-derived CD34+ HSPC clonogenic progenitors; assay: Colony-forming cell assay of transduced CB-derived CD34+ cells; assay type: cell-based, human; settings: MOI 10; plating of vital cells in methylcellulose (FIG. 21A)
# Description: Colony-forming cell assays were performed by plating 8×10^2 human cord blood-derived CD34^+ cells transduced with SINLV-GFP at a MOI of 10 in presence of the different compounds in a methylcellulose-based medium (Methocult GF4434, Stem Cell Technologies). 15 days later, colonies were scored by light microscopy for colony numbers and morphology. CFU-E and BFU-E were scored as erythroid colonies, while CFU-G, CFU-M, CFU-GM and CFU-GEMM as myeloid colonies.
# Human differentiated cells from CFC were harvested from a single plate (pool of colonies) and mixed into a single cell suspension. Cells were then washed and resuspended in PBS containing 2% FBS. For immunostaining, cells were incubated with anti-human receptor blocking antibodies for 15 min at 4° C. and then stained for 20 min at 4° C. with anti-human CD235a and CD33 antibodies (for antibodies, see Table 1). To exclude dead cells from the analysis, cells were washed and resuspended in PBS containing 10 ng/mL 7-aminoactinomycin D (7-AAD).
# [4] = system: Human cord blood-derived CD34+ cells transplanted in NSG mice; assay: Transplantation of transduced human HSPC in NSG mice; assay type: in vivo, NOD-SCID-IL2Rg−/− (NSG) mice
# Description: NOD-SCID-IL2Rg−/− (NSG) mice were purchased from Jackson laboratory. All animal procedures were performed according to protocols approved by the Animal Care and Use Committee of the Ospedale San Raffaele (IACUC 661) and communicated to the Ministry of Health and local authorities according to Italian law. […] After transduction, 1.3×10^5 cells were infused into the tail vein of sublethally irradiated 10-week-old NSG mice (radiation dose: 200 cGy for mice weighing 18-25 g and 220 cGy for mice above 25 g of weight). Transduced and untransduced cells were also cultured in vitro for 14 days for further analysis. In vitro cultured cells and BM cells isolated from transplanted mice at the time of sacrifice were then used to quantify the VCN by qPCR.
# For each mouse, 250 μL of peripheral blood were added to 15 μL of PBS containing 45 mg/mL EDTA. For immunostaining, a known volume of whole blood (100 μL) was first incubated with anti-human FcγIII/II receptor (Cd16/Cd32) blocking antibodies for 15 min at 4° C. and then incubated in the presence of monoclonal antibodies (for antibodies, see Table 1) for 20 min at 4° C. Erythrocytes were removed by lysis with the TQ-Prep workstation (Beckman-Coulter) in the presence of an equal volume of FBS (100 μL) to protect white blood cells.
# BM cells were obtained by flushing the femurs in PBS 2% FBS solution. Cells (1×10^6 cells) were washed, resuspended in 100 μL of PBS containing 2% FBS, and incubated with anti-human receptor (Cd16/Cd32) blocking antibodies for 15 min at 4° C. Staining was then performed with monoclonal antibodies (for antibodies, see Table 1) for 20 min at 4° C. Cells were washed and finally resuspended in PBS containing 2% FBS.
# Spleens were first smashed and the resulting cell suspension was passed through 40 μm nylon filter and washed in cold phosphate buffered saline (PBS) containing 2 mM EDTA and 0.5% bovine serum albumin (BSA). Cells were incubated with anti-human receptor (Cd16/Cd32) blocking antibodies for 15 min at 4° C. and then stained with anti-human monoclonal antibodies (for antibodies, see Table 1) for 20 min at 4° C. Cells were finally washed and resuspended in PBS containing 2% FBS.
# Murine Lin− HSPC = assay: SINLV-GFP transduction of murine Lin- HSPC; assay type: cell-based; settings: MOI 1, 10 μM CsA, 10 μg/ml Rapamycin or combination (FIG. 29A)
# Description: The percentage of GFP+ cells was evaluated by FACS 5 days post-transduction. Data are the mean±SEM of three independent experiments for HSPC and three independent transductions for CD4+ T cells. p values are for One way ANOVA with Bonferroni's multiple comparison.
smiles,measurement,setting,value
"CO[C@H]1C[C@@H]2CC[C@@H](C)[C@@](O)(O2)C(=O)C(=O)N2CCCC[C@H]2C(=O)O[C@H]([C@H](C)C[C@@H]2CC[C@@H](O)[C@H](OC)C2)CC(=O)[C@H](C)/C=C(\C)[C@@H](O)[C@@H](OC)C(=O)[C@H](C)C[C@H](C)/C=C/C=C/C=C/1C [rapamycin, Rapamycin]",increase in the percentage of GFP+ cells,[1],2 fold
same,transduction efficiency in titration of Rapa,"[1]; 10 μg/ml vs lower doses, MOI 1 (FIG. 28)",improved transduction efficiency over lower doses
same,GFP+ cells with clinical grade SINLV,"[1]; CB-derived CD34+ cells, clinical grade PGK-GFP SINLV, MOI of 10 (FIG. 25A)",up to 60%
same,transduction efficiency of WT and CA mutant vectors,"[1]; CD34+ cells, SINLVs with single CA point mutations MOI 1, vs DMSO (FIG. 14B)",increased efficiency for all CA mutants
same,transduction levels in all HSPC subpopulations,"[1]; CD34− progenitors to CD34+CD133+CD90+ cells, FACS three days after transduction (FIG. 15C)",equally improved transduction levels
same,increase in the percentage of GFP+ cells,[2],2 fold
same,"number of total, CFU-GM (myeloid) and BFU-E (erythroid) colonies",[3],No significant differences
same,overall percentage of GFP+ cells in the spleen,"[4]; 20 weeks post-transplant (FIG. 22H), DMSO 49.0±5",80.8±1%
same,GFP+/hCD45+ cells in peripheral blood,"[4]; NSG mice, 11 weeks after transplant (FIG. 22C), DMSO 48±6",78±2%
same,VCN in the BM cells,"[4]; NSG mice, 20 weeks post-transplant, DMSO 0.9±0.2",3.6±0.4
same,levels of engraftment in the BM with respect to controls (in words),"[4]; NSG mice, 20 weeks post-transplant, p<0.047 v. DMSO",modest but statistically significant increase
same,transduction (percentage of GFP+ cells),Murine Lin− HSPC,significantly improved transduction
